In patent US20240002430A1, “METHOD FOR PRODUCING PROTEIN COMPOSITIONS” (HOFFMAN-LA ROCHE INC., priority 2020, published 2024):

Experiments:
[1] = general statement in the description, no test described; cited from earlier work
lipase CalB2 = biological target: T1, lipase CalB2 (Moesziomyces antarcticus, UniProt P41365); experiment: Targeted LC-MS proteomics of lipase bound to bis-enol-ester functionalized magnetic beads; assay type: binding; details: compound C coupled to azide modified polystyrene magnetic beads; CalB2 + Herceptin mixture, over night 40° C.; after extensive washing; vs non-functionalized beads
T1 sequence (P41365 26-342): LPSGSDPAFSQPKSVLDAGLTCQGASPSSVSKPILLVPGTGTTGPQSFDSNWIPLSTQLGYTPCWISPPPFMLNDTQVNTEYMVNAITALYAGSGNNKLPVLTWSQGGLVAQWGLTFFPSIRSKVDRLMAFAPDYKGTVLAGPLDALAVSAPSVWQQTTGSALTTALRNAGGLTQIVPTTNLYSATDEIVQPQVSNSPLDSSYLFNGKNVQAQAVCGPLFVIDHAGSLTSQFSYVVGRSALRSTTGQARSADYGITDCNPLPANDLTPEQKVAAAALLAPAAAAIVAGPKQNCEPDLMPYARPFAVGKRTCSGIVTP
Method: Test sample: Herceptin (mAb; 0.2 μg/μl in Na-Phosphate-Buffer) as control protein for the LC-MS based proteomics workflow was mixed with the lipase CalB2 (CalB2; […] in Na-Phosphate-Buffer) in a ca. 1:1 (mol/mol) ratio) as target. The above-mentioned samples were addressed with compound C (bis-enol-ester) covalently coupled to 60 μg azide modified magnetic particles (60 μl of a […] aqueous solution were prepared) (Polystyrene based azide beads; CLK-1036-1, Jena-Bioscience) which were made by click reaction and purification (see protocol experiment Example 1 and general procedure described for the Jena-Bioscience click protocol). […]
The targeted LC-MS analysis was performed using Water/Acetonitrile gradients with TFA (0.05% v(v) as buffer. The separation column was a PepSwift Monolithic Capillary Column, 200 μm×5 cm, P/N: 161409. As mass spectrometer, a Thermo LTQ FT system was used. Further experimental design for quantitative analyses followed general experimental targeted LC-MS procedures. The proteins bound to the beads were applied to the LC-MS system by injection of 1 μl of the digested sample on the analytical column. […]

Row | Compound | solubility in water [1] | binding of model lipase CalB2 to functionalized beads (LC-MS peptide peak intensities, FIG. 6) (lipase CalB2)
1 | CCCCCCCCCCC[C@@H](C[C@@H]1OC(=O)[C@H]1CCCCCC)OC(=O)[C@H](CC(C)C)NC=O [Orlistat] | highly insoluble in water | –
2 | C#CCCCC(=C/OC(=O)CCCCCCCCCCC)/C=C/OC(=O)CCCCCCCCCCC [bis-enol ester] | – | binds to beads functionalized with bis-enol ester even when subjected to extensive washing steps
